Source: ChEMBL document CHEMBL6103615, “Thymidylate Kinase-Targeted Antimicrobial Peptides via Phage Display: A Novel Strategy against Gram-Negative Bacteria” (J Med Chem, 2025)
≈ marks a conversion by molar mass, not a printed value. Calls of active or inactive are those of the source. The rule behind the calls is not given here.

Tests used:
Bacteria [1] = assay: Antibacterial activity against bacterial cells at pH 12; format: functional
[2] = Hydrophobicity of compound; format: physicochemical
[3] = Relative hydrophobic moment of compound; format: physicochemical
Lactococcus lactis = assay: Antibacterial activity against Lactococcus lactis NZ9000 incubated for 12 to 18 hrs by microbroth dilution method; format: functional; conditions: time 12-18 hrs
[4] = tested on: Lactiplantibacillus plantarum; assay: Antibacterial activity against Lactobacillus plantarum 8014 incubated for 12 to 18 hrs by microbroth dilution method; format: functional; conditions: time 12-18 hrs
Bacteria [5] = assay: Antibacterial activity against bacterial cells at pH 4 to 10; format: functional
[6] = tested on: Staphylococcus epidermidis; assay: Antibacterial activity against Staphylococcus epidermidis 12228 incubated for 12 to 18 hrs by microbroth dilution method; format: functional; conditions: time 12-18 hrs
Staphylococcus aureus = assay: Antibacterial activity against methicillin-resistant Staphylococcus aureus 43300 incubated for 12 to 18 hrs by microbroth dilution method; format: functional; conditions: time 12-18 hrs
[7] = Selectivity ratio of MIC for antibacterial activity against Lactobacillus rhamnosus 7469 to MIC for antibacterial activity against Escherichia coli K89; format: functional
[8] = Selectivity ratio of MIC for antibacterial activity against Lactobacillus plantarum 8014 to MIC for antibacterial activity against Escherichia coli K90; format: functional
[9] = Selectivity ratio of MIC for antibacterial activity against Staphylococcus epidermidis 12228 to MIC for antibacterial activity against Escherichia coli K91; format: functional
[10] = Selectivity ratio of MIC for antibacterial activity against Staphylococcus aureus 25923 to MIC for antibacterial activity against Escherichia coli K93; format: functional
[11] = Selectivity ratio of MIC for antibacterial activity against Enterococcus faecalis 29212 to MIC for antibacterial activity against Escherichia coli K95; format: functional
[12] = Selectivity ratio of MIC for antibacterial activity against Pseudomonas aeruginosa 27853 to MIC for antibacterial activity against Escherichia coli K96; format: functional
[13] = Selectivity ratio of MIC for antibacterial activity against Salmonella typhimurium 7731 to MIC for antibacterial activity against Escherichia coli K98; format: functional
[14] = Selectivity ratio of MIC for antibacterial activity against Escherichia coli 078 to MIC for antibacterial activity against Escherichia coli K101; format: functional
[15] = Hemolytic activity against human red blood cells at 2 to 128 uM relative to control; format: toxicity, cell-based, Erythrocyte; conditions: dose 2-128 µM, read-out: Activity
[16] = Cytotoxicity against mouse RAW264.7 cells assessed as cell viability at 128 uM incubated for 4 hrs by MTT assay relative to control; format: toxicity, cell-based; conditions: read-out: Activity
[17] = Cytotoxicity against porcine IPEC-J2 cells assessed as cell viability at 128 uM incubated for 4 hrs by MTT assay relative to control; format: toxicity, cell-based, Sus scrofa; conditions: pig, read-out: Activity
[18] = (§1) Binding affinity to 6xHis-tagged recombinant Escherichia coli TMK assessed as dissociation constant by BLI assay
Escherichia coli [19] = assay: as §1
Bacteria [20] = assay: Antibacterial activity against bacterial cells at pH 2 to 12; format: functional
Bacteria [21] = assay: Antibacterial activity against bacterial cells at pH 2; format: functional
Escherichia coli [22] = assay: Induction of resistance development in Escherichia coli K88 at sub-MIC measured after 20 passages; format: functional, organism-based
Escherichia coli [23] = assay: Induction of outer membrane permeability in Escherichia coli K88 assessed as NPN leakage; format: functional, organism-based; conditions: dose 1-32 µM
Escherichia coli [24] = assay: Induction of outer membrane permeability in Escherichia coli K88 assessed as NPN leakage at 2 uM relative to control; format: functional
Escherichia coli [25] = assay: Induction of cytoplasmic membrane depolarization in Escherichia coli K88 at 2 uM by DiSC3-5 dye based analysis; format: functional, organism-based
Escherichia coli [26] = assay: Induction of morphological changes in Escherichia coli K88 assessed as membrane folding at 2 uM incubated for 1 hr by SEM analysis; format: functional, organism-based
Escherichia coli [27] = assay: Induction of ROS generation in Escherichia coli K88 assessed as increase in fluorescence intensity incubated for 1 hr by DCFH-DA dye based analysis; format: functional, organism-based
[28] = Toxicity in ICR mouse assessed as hunchback posture at 40 mg/kg, ip measured for 30 to 4 hrs; format: organism-based; conditions: in vivo, time 30-4 hrs
[29] = Toxicity in ICR mouse assessed as impaired mobility at 40 mg/kg, ip measured for 30 to 4 hrs; format: organism-based; conditions: in vivo, time 30-4 hrs
[30] = Toxicity in ICR mouse assessed as change in serum BUN level at 10 to 40 mg/kg, ip treated for 3 days consecutively; format: organism-based; conditions: in vivo, 72 h, dose 10-40 mg/kg, time 3 day
[31] = Toxicity in ICR mouse assessed as change in serum CREA level at 10 to 40 mg/kg, ip treated for 3 days consecutively; format: organism-based; conditions: in vivo, 72 h, dose 10-40 mg/kg, time 3 day
[32] = Toxicity in ICR mouse assessed as change in spleen index at 10 to 40 mg/kg, ip treated for 3 days consecutively; format: organism-based; conditions: in vivo, 72 h, dose 10-40 mg/kg, time 3 day
[33] = Toxicity in ICR mouse assessed as change in kidney index at 10 to 40 mg/kg, ip treated for 3 days consecutively; format: organism-based; conditions: in vivo, 72 h, dose 10-40 mg/kg, time 3 day
Escherichia coli [34] = assay: Antibacterial activity against Escherichia coli K88 infected in ICR mouse model of peritoneal sepsis assessed as bacterial load reduction in spleen at 20 mg/kg, ip measured after 10 hrs; format: functional, organism-based
Escherichia coli [35] = assay: Antibacterial activity against Escherichia coli K88 infected in ICR mouse model of peritoneal sepsis assessed as bacterial load reduction in lung at 20 mg/kg, ip measured after 10 hrs; format: functional, organism-based
Escherichia coli [36] = assay: Antibacterial activity against Escherichia coli K88 infected in ICR mouse model of peritoneal sepsis assessed as reduction in vascular bruising in liver at 20 mg/kg, ip measured after 10 hrs by H and E staining based analysis; format: functional, organism-based
Escherichia coli [37] = assay: Antibacterial activity against Escherichia coli K88 infected in ICR mouse model of peritoneal sepsis assessed as reduction in necrosis in renal tubular epithelial cells at 20 mg/kg, ip measured after 10 hrs by H and E staining based analysis; format: functional, organism-based
Escherichia coli [38] = assay: Antibacterial activity against Escherichia coli K88 infected in ICR mouse model of peritoneal sepsis assessed as reduction in edema in renal tubular epithelial cells at 20 mg/kg, ip measured after 10 hrs by H and E staining based analysis; format: functional, organism-based
Escherichia coli [39] = assay: Antibacterial activity against Escherichia coli K88 infected in ICR mouse model of peritoneal sepsis assessed as reduction in alveolar wall thickening in lungs at 20 mg/kg, ip measured after 10 hrs by H and E staining based analysis; format: functional, organism-based

CC[C@@H](C)[C@H](NC(=O)CNC(=O)[C@@H]1CCCN1C(=O)[C@H](CCCCN)NC(=O)[C@H](Cc1c[nH]c2ccccc12)NC(=O)[C@@H](NC(=O)[C@H](CCCCN)NC(=O)[C@H](CCCCN)NC(=O)[C@H](Cc1c[nH]c2ccccc12)NC(=O)[C@H](Cc1ccc(O)cc1)NC(=O)[C@H](CCCCN)NC(=O)[C@@H](NC(=O)[C@H](CC(C)C)NC(=O)[C@H](CC(N)=O)NC(=O)CNC(=O)[C@@H](N)CO)[C@@H](C)O)[C@@H](C)CC)C(=O)N[C@@H](CCCCN)C(=O)N[C@@H](CCCCN)C(=O)N[C@@H](Cc1c[nH]c2ccccc12)C(=O)N[C@H](C(=O)N[C@@H](CCCCN)C(=O)O)[C@H](C)CC
MIC (Bacteria [1]): 4 µM (≈ 10.4 µg/mL) | Activity [2]: 0.391 | Activity [3]: 0.583 | MIC (Lactococcus lactis): 128 µM (≈ 333 µg/mL) | MIC [4]: 128 µM (≈ 333 µg/mL) | MIC (Bacteria [5]): 2 µM (≈ 5.21 µg/mL) | MIC [6]: 128 µM (≈ 333 µg/mL) | MIC (Staphylococcus aureus): 128 µM (≈ 333 µg/mL) | Ratio [7]: >2 | Ratio [8]: >2 | Ratio [9]: >2 | Ratio [10]: >2 | Ratio [11]: >2 | Ratio [12]: >2 | Ratio [13]: >2 | Ratio [14]: >2 | hemolysis at up to 128 µM [15]: < 5% | viability at 4 h, 128 µM [16]: > 80% | viability at 4 h, 128 µM [17]: > 80% | Kd [18]: 4.72 µM | Activity (Escherichia coli [19]): Dose-dependent-effect | MIC (Bacteria [20]): 2 µM (≈ 5.21 µg/mL) | MIC (Bacteria [21]): 4 µM (≈ 10.4 µg/mL) | Activity (Escherichia coli [22]): inactive | Activity (Escherichia coli [23]): Dose-dependent-effect | Activity (Escherichia coli [24]): ~50% | Activity (Escherichia coli [25]): Active | Activity (Escherichia coli [26]): Active | Activity (Escherichia coli [27]): Dose-dependent-effect | Activity [28]: Toxic | Activity [29]: Toxic | Activity [30]: Non-toxic | Activity [31]: Non-toxic | Activity [32]: Non-toxic | Activity [33]: Non-toxic | Activity (Escherichia coli [34]): Active; Activity Comparable To Colistin Treatment | Activity (Escherichia coli [35]): Active; Activity Comparable To Colistin Treatment | Activity (Escherichia coli [36]): Active | Activity (Escherichia coli [37]): Active | Activity (Escherichia coli [38]): Active | Activity (Escherichia coli [39]): Active
